Laboratory results from PubChem BioAssay (NCI).
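The compound was tested at five concentrations on cells cultured in 96-well plates, with a 48-hour exposure period. GI50 is the concentration that inhibits growth by half. TGI: concentration producing complete growth inhibition.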

Tests used:
Assay in all cases: growth of human tumour cells (NCI), 48 h
SK-OV-3 ovarian = test system: SK-OV-3 ovarian
HCC-2998 colon = test system: HCC-2998 colon
MCF7 breast = test system: MCF7 breast
SF-268 CNS = test system: SF-268 CNS
MDA-MB-435 = test system: MDA-MB-435
HOP-92 NSCLC = test system: HOP-92 NSCLC
SR leukemia = test system: SR leukemia
KM12 colon = test system: KM12 colon
HOP-62 NSCLC = test system: HOP-62 NSCLC
T-47D breast = test system: T-47D breast
OVCAR-3 ovarian = test system: OVCAR-3 ovarian
A498 renal = test system: A498 renal
LOX IMVI melanoma = test system: LOX IMVI melanoma
A549 NSCLC = test system: A549 NSCLC
BT-549 breast = test system: BT-549 breast
OVCAR-8 ovarian = test system: OVCAR-8 ovarian
SK-MEL-28 melanoma = test system: SK-MEL-28 melanoma
UACC-62 melanoma = test system: UACC-62 melanoma
RPMI-8226 leukemia = test system: RPMI-8226 leukemia
NCI-H226 lung = test system: NCI-H226 lung
HCT-116 colon = test system: HCT-116 colon
HL-60(TB) leukemia = test system: HL-60(TB) leukemia
NCI-H23 lung = test system: NCI-H23 lung
DU-145 prostate = test system: DU-145 prostate
CAKI-1 renal = test system: CAKI-1 renal
MDA-MB-231 breast = test system: MDA-MB-231 breast
ACHN renal = test system: ACHN renal
SK-MEL-5 melanoma = test system: SK-MEL-5 melanoma
UACC-257 melanoma = test system: UACC-257 melanoma
MOLT-4 leukemia = test system: MOLT-4 leukemia
NCI-H522 lung = test system: NCI-H522 lung
SK-MEL-2 melanoma = test system: SK-MEL-2 melanoma
HT29 colon = test system: HT29 colon
MDA-MB-468 breast = test system: MDA-MB-468 breast
OVCAR-5 ovarian = test system: OVCAR-5 ovarian
M14 melanoma = test system: M14 melanoma
HS 578T breast = test system: HS 578T breast
NCI/ADR-RES ovarian = test system: NCI/ADR-RES ovarian
EKVX NSCLC = test system: EKVX NSCLC
CCRF-CEM leukemia = test system: CCRF-CEM leukemia
NCI-H460 lung = test system: NCI-H460 lung
SF-539 CNS = test system: SF-539 CNS
SW-620 colon = test system: SW-620 colon
RXF 393 renal = test system: RXF 393 renal
OVCAR-4 ovarian = test system: OVCAR-4 ovarian
COLO 205 colon = test system: COLO 205 colon
SN12C renal = test system: SN12C renal
UO-31 renal = test system: UO-31 renal
SNB-19 CNS = test system: SNB-19 CNS
HCT-15 colon = test system: HCT-15 colon
IGROV1 ovarian = test system: IGROV1 ovarian
TK-10 renal = test system: TK-10 renal
K-562 leukemia = test system: K-562 leukemia
786-0 renal = test system: 786-0 renal
U251 CNS = test system: U251 CNS
PC-3 prostate = test system: PC-3 prostate
SF-295 CNS = test system: SF-295 CNS
MALME-3M melanoma = test system: MALME-3M melanoma
SNB-75 CNS = test system: SNB-75 CNS

**Q.** Which results are given for `C[C@H]1[C@H](C)CC[C@]2(COC(=O)CCC(=O)NCC#CCN3CCNCC3)CC[C@]3(C)C(=CC[C@@H]4[C@@]5(C)CCCNC(C)(C)[C@@H]5CC[C@]43C)[C@H]12`?
**A.** GI50 (SK-OV-3 ovarian): 19.4 µM; TGI (SK-OV-3 ovarian): 44.7 µM; GI50 (HCC-2998 colon): 15.1 µM; TGI (HCC-2998 colon): 29.2 µM; GI50 (MCF7 breast): 12.7 µM; TGI (MCF7 breast): 25.3 µM; GI50 (SF-268 CNS): 17.9 µM; TGI (SF-268 CNS): 40.1 µM; GI50 (MDA-MB-435): 14.1 µM; TGI (MDA-MB-435): 27.5 µM; GI50 (HOP-92 NSCLC): 13.2 µM; TGI (HOP-92 NSCLC): 41.7 µM; GI50 (SR leukemia): 15.4 µM; TGI (SR leukemia): 61.5 µM; GI50 (KM12 colon): 17.5 µM; TGI (KM12 colon): 34 µM; GI50 (HOP-62 NSCLC): 18.9 µM; TGI (HOP-62 NSCLC): 36.8 µM; GI50 (T-47D breast): 19 µM; TGI (T-47D breast): 44.4 µM; GI50 (OVCAR-3 ovarian): 14.1 µM; TGI (OVCAR-3 ovarian): 27.6 µM; GI50 (A498 renal): 15.1 µM; TGI (A498 renal): 28.3 µM; GI50 (LOX IMVI melanoma): 20.5 µM; TGI (LOX IMVI melanoma): 44.7 µM; GI50 (A549 NSCLC): 14.9 µM; TGI (A549 NSCLC): 28.1 µM; GI50 (BT-549 breast): 16.2 µM; TGI (BT-549 breast): 32.7 µM; GI50 (OVCAR-8 ovarian): 19 µM; TGI (OVCAR-8 ovarian): 37.9 µM; GI50 (SK-MEL-28 melanoma): 16.4 µM; TGI (SK-MEL-28 melanoma): 30 µM; GI50 (UACC-62 melanoma): 14 µM; TGI (UACC-62 melanoma): 27.2 µM; GI50 (RPMI-8226 leukemia): 17 µM; TGI (RPMI-8226 leukemia): 94.5 µM; GI50 (NCI-H226 lung): 27.3 µM; TGI (NCI-H226 lung): > 100 µM; GI50 (HCT-116 colon): 11.5 µM; TGI (HCT-116 colon): 23.6 µM; GI50 (HL-60(TB) leukemia): 4.98 µM; TGI (HL-60(TB) leukemia): 27.1 µM; GI50 (NCI-H23 lung): 16.2 µM; TGI (NCI-H23 lung): 30.7 µM; GI50 (DU-145 prostate): 17.5 µM; TGI (DU-145 prostate): 31.2 µM; GI50 (CAKI-1 renal): 14.7 µM; TGI (CAKI-1 renal): 28.4 µM; GI50 (MDA-MB-231 breast): 18.2 µM; TGI (MDA-MB-231 breast): 32.1 µM; GI50 (ACHN renal): 16.4 µM; TGI (ACHN renal): 30 µM; GI50 (SK-MEL-5 melanoma): 14.2 µM; TGI (SK-MEL-5 melanoma): 31.9 µM; GI50 (UACC-257 melanoma): 16.5 µM; TGI (UACC-257 melanoma): 33.5 µM; GI50 (MOLT-4 leukemia): 9.96 µM; TGI (MOLT-4 leukemia): 32.9 µM; GI50 (NCI-H522 lung): 16.4 µM; TGI (NCI-H522 lung): 33.7 µM; GI50 (SK-MEL-2 melanoma): 17.7 µM; TGI (SK-MEL-2 melanoma): 33.4 µM; GI50 (HT29 colon): 12.3 µM; TGI (HT29 colon): 26.1 µM; GI50 (MDA-MB-468 breast): 10.7 µM; TGI (MDA-MB-468 breast): 25.9 µM; GI50 (OVCAR-5 ovarian): 17.2 µM; TGI (OVCAR-5 ovarian): 30.9 µM; GI50 (M14 melanoma): 15.7 µM; TGI (M14 melanoma): 30.9 µM; GI50 (HS 578T breast): 20.9 µM; TGI (HS 578T breast): 55.7 µM; GI50 (NCI/ADR-RES ovarian): 17.4 µM; TGI (NCI/ADR-RES ovarian): 34.6 µM; GI50 (EKVX NSCLC): 15.9 µM; TGI (EKVX NSCLC): 32.2 µM; GI50 (CCRF-CEM leukemia): 16.8 µM; TGI (CCRF-CEM leukemia): 48.2 µM; GI50 (NCI-H460 lung): 16.5 µM; TGI (NCI-H460 lung): 30.1 µM; GI50 (SF-539 CNS): 13.9 µM; TGI (SF-539 CNS): 26.8 µM; GI50 (SW-620 colon): 15.5 µM; TGI (SW-620 colon): 28.9 µM; GI50 (RXF 393 renal): 18.2 µM; TGI (RXF 393 renal): 45.6 µM; GI50 (OVCAR-4 ovarian): 25.1 µM; TGI (OVCAR-4 ovarian): 72.9 µM; GI50 (COLO 205 colon): 18.3 µM; TGI (COLO 205 colon): 36 µM; GI50 (SN12C renal): 14.7 µM; TGI (SN12C renal): 28.8 µM; GI50 (UO-31 renal): 12 µM; TGI (UO-31 renal): 24.3 µM; GI50 (SNB-19 CNS): 15.7 µM; TGI (SNB-19 CNS): 29.1 µM; GI50 (HCT-15 colon): 14.5 µM; TGI (HCT-15 colon): 27.6 µM; GI50 (IGROV1 ovarian): 14.3 µM; TGI (IGROV1 ovarian): 27.3 µM; GI50 (TK-10 renal): 18.9 µM; TGI (TK-10 renal): 37.4 µM; GI50 (K-562 leukemia): 6.02 µM; TGI (K-562 leukemia): 20.5 µM; GI50 (786-0 renal): 15 µM; TGI (786-0 renal): 34.6 µM; GI50 (U251 CNS): 16.9 µM; TGI (U251 CNS): 32 µM; GI50 (PC-3 prostate): 11 µM; TGI (PC-3 prostate): 27.3 µM; GI50 (SF-295 CNS): 22.5 µM; TGI (SF-295 CNS): 57.2 µM; GI50 (MALME-3M melanoma): 15.8 µM; TGI (MALME-3M melanoma): 29.2 µM; GI50 (SNB-75 CNS): 13.3 µM; TGI (SNB-75 CNS): 37.8 µM
